Test results reported in the NIST ThermoML archive (doi:10.1016/j.jct.2010.11.007).
Where “and” joins values, the source holds several entries; their conditions need not be identical. Equal values may be shown once. Numbers after ± are expanded uncertainties.

Tests used:
[1] = 101.33 kPa, Liquid; for speed of sound: Sing-around technique in a fixed-path interferometer; for mass density: Vibrating tube method
[2] = refractive index (Na D-line) (dimensionless); details: 101.33 kPa, Liquid, Standard Abbe refractometry
[3] = xn = mol fraction of the nth substance listed; details: Liquid, x2 = 0; for speed of sound: Sing-around technique in a fixed-path interferometer; for mass density: Vibrating tube method
[4] = refractive index (Na D-line) (dimensionless); xn = mol fraction of the nth substance listed; details: 101 kPa, Liquid, Standard Abbe refractometry, x2 = 0

## C=CC(C)(O)CCC=C(C)C (stereo unspecified) [3,7-dimethyl-1,6-octadien-3-ol]
[1]; 283.15 K
  speed of sound: 1370.3 ± 2 m/s
  mass density: 869.39 ± 0.63 kg/m3
[1]; 298.15 K
  speed of sound: 1315.1 ± 2 m/s
  mass density: 857 ± 0.62 kg/m3
[1]; 313.15 K
  speed of sound: 1260.8 ± 2 m/s
  mass density: 844.29 ± 0.61 kg/m3
[1]; 328.15 K
  speed of sound: 1207.6 ± 2 m/s
  mass density: 831.31 ± 0.6 kg/m3
[2]; 283.15 K
  refractive index: 1.46659 ± 0.0005 and 1.4666 ± 0.0005
[2]; 298.15 K
  refractive index: 1.45946 ± 0.0005
[2]; 313.15 K
  refractive index: 1.45215 ± 0.0005
[2]; 328.15 K
  refractive index: 1.44473 ± 0.0005

## CCCO [propan-1-ol]
[1]; 283.15 K
  speed of sound: 1257.9 ± 0.7 m/s
  mass density: 811.52 ± 0.13 kg/m3
[1]; 298.15 K
  speed of sound: 1206.3 ± 0.7 m/s
  mass density: 799.56 ± 0.13 kg/m3
[1]; 313.15 K
  speed of sound: 1156.8 ± 0.7 m/s
  mass density: 787.33 ± 0.14 kg/m3
[1]; 328.15 K
  speed of sound: 1106.8 ± 0.7 m/s
  mass density: 774.69 ± 0.14 kg/m3
[2]; 283.15 K
  refractive index: 1.38906 ± 0.00032
[2]; 298.15 K
  refractive index: 1.38288 ± 0.00032
[2]; 313.15 K
  refractive index: 1.3766 ± 0.00032
[2]; 328.15 K
  refractive index: 1.37015 ± 0.00032

## CCCO [propan-1-ol] + C=CC(C)(O)CCC=C(C)C
[3]; 283.15 K, 101 kPa
  speed of sound: 1258 ± 0.7 m/s
  mass density: 811.52 ± 0.13 kg/m3
[3]; 283.15 K, 20000 kPa
  mass density: 825.3 ± 1 kg/m3
[3]; 283.15 K, 25000 kPa
  mass density: 828.5 ± 1 kg/m3
[3]; 283.15 K, 30000 kPa
  mass density: 831.5 ± 1 kg/m3
[3]; 283.15 K, 35000 kPa
  mass density: 834.5 ± 1 kg/m3
[3]; 283.15 K, 40000 kPa
  mass density: 837.4 ± 1.1 kg/m3
[3]; 298.15 K, 101 kPa
  speed of sound: 1206.3 ± 0.7 m/s
  mass density: 799.56 ± 0.13 kg/m3
[3]; 298.15 K, 20000 kPa
  mass density: 814.3 ± 1 kg/m3
[3]; 298.15 K, 25000 kPa
  mass density: 817.8 ± 1 kg/m3
[3]; 298.15 K, 30000 kPa
  mass density: 821 ± 1 kg/m3
[3]; 298.15 K, 35000 kPa
  mass density: 824.1 ± 1.1 kg/m3
[3]; 298.15 K, 40000 kPa
  mass density: 827.3 ± 1.1 kg/m3
[3]; 313.15 K, 101 kPa
  speed of sound: 1156.8 ± 0.7 m/s
  mass density: 787.34 ± 0.14 kg/m3
[3]; 313.15 K, 20000 kPa
  mass density: 803.3 ± 1 kg/m3
[3]; 313.15 K, 25000 kPa
  mass density: 806.9 ± 1 kg/m3
[3]; 313.15 K, 30000 kPa
  mass density: 810.4 ± 1 kg/m3
[3]; 313.15 K, 35000 kPa
  mass density: 813.8 ± 1.1 kg/m3
[3]; 313.15 K, 40000 kPa
  mass density: 817 ± 1.1 kg/m3
[3]; 328.15 K, 101 kPa
  speed of sound: 1106.8 ± 0.7 m/s
  mass density: 774.69 ± 0.14 kg/m3
[3]; 328.15 K, 20000 kPa
  mass density: 792.1 ± 1 kg/m3
[3]; 328.15 K, 25000 kPa
  mass density: 795.9 ± 1 kg/m3
[3]; 328.15 K, 30000 kPa
  mass density: 799.6 ± 1.1 kg/m3
[3]; 328.15 K, 35000 kPa
  mass density: 803.2 ± 1.1 kg/m3
[3]; 328.15 K, 40000 kPa
  mass density: 806.6 ± 1.1 kg/m3
[4]; 283.15 K
  refractive index: 1.38906 ± 0.00032
[4]; 298.15 K
  refractive index: 1.38288 ± 0.00032
[4]; 313.15 K
  refractive index: 1.3766 ± 0.00032
[4]; 328.15 K
  refractive index: 1.37015 ± 0.00032
